The target in data set [1] is human stimulator of interferon genes (STING) (139-379) (Homo sapiens (Human), UniProt Q86WV6). Briefly: Microliter plate-based TR-FRET competition-binding assay for binders of STING. The conditions noted are these: Alexa488 probe, read-out: FRET_IC50. The procedure: This is the competition-binding assay to test the compounds' potency to the C-terminal Domain (CTD) and ligand-binding domain of human stimulator of interferon genes (STING). STING (139-379, Q86WV6, http://www.uniprot.org/uniprot) recombinant protein (in 20 mM Tris, 150 mM NaCl, pH 8.0, and expression in Escherichia coli (E. coli) BL21 (DE3)) with a C-terminal flag-tag was employed for the assay. When Alexa-488 labeled active site probe (refer to patent WO2017/175156 A1) bounds to STING (139-379), it accepts the 485 nm emission from Tb-M2-Flag-STING and results in an increase in fluorescence at 520 nm. Compounds that compete for the probe-binding site will reduce 520 nm signal. The assay was run in proxiplate-384 plus (PerkinElmer, cat: 60150300) containing of 2.5 nM STING, 2.5 nM M2-Tb (Cisbio, 61FG2TLA, Lot: 17 A) and 250 nM Alexa488 probe. Plates were centrifuged for 1 min at 1000 rpm, incubated for 30 min at room temperature, and then measured the dual fluorescence emission at 520 nm/485 nM following 320 nm laser excitation on an Envision plate reader (Perkin-Elmer). The compounds' effect on the STING binding is detected by measuring ratiometric fluorescence from time-resolved FRET. The percentage of inhibition of at each compound concentration is calculated on the basis of their changes of TR-FRET efficiency relative to the change of TR-FRET caused by positive control 2′3′cGAMP (Sigma, cat: SML1229).
Sequence of human stimulator of interferon genes (STING) (139-379) (Q86WV6 139-379): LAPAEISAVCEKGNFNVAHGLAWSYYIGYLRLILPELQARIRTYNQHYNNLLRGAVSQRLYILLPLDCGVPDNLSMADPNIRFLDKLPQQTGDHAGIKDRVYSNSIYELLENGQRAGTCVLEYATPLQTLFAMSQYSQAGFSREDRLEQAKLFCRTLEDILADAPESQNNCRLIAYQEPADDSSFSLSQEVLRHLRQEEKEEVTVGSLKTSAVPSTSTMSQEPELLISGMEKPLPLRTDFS

The test system of another data set is STING (IFN-β in hPBMC). Description: hPBMC cytokine functional assay (IFN-β decrease after Baculovirus stimulation). Type of data set: cell-based. Particulars: Homo sapiens, Baculovirus MOI 40, 24 hours, read-out: hPBMC_IC50. The protocol: The inhibition of STING by compounds could be measured by the decrease of IFN-β in hPBMC, which is stimulated by a double stranded DNA virus Baculoviurs (Purchased from Genescript, pCMV-Dest Vector virus generation P2 BV stock virus, Sf-900 II medium with 5% FBS, Lot C9835DK230-2/P4DL001). Frozen hPBMC cells (purchased from Stemcell Technologies, cat number is 70025, Lot 191070803C) were thawed at 37° C. water bath, then cells were re-suspended in 50 ml tube using 20 ml Cell culture medium, and then centrifuged for 5 min at 2000 rpm before the supernatant was removed carefully. The cells were re-suspended in culture medium (RPMI-1640 with 1.5 g/L NaHCO3, 4.5 g/L glucose, 10 mM HEPES and 1 mM Na-pyruvate, 10% HI-FBS); 65 μL of the cell suspension was dispensed into 384 well plate (70K cells/well) by Multidrop Combi with at least 3 hours incubation at 37° C., 5% CO2 cell incubator.
Then 4 μL of compound solution per well (final 0.5% DMSO) was transferred by Agilent Bravo followed by infection with 11 μL of Baculovirus at a final MOI of 40. The level of IFN-β secreted in the supernatant of hPBMC was determined after 24 hours of incubation at 37° C. cell incubator by human IFN-β HTRF assay (Cisbio, cat: 62HIFNBPEH) following the manufacture's instruction. CellTiter-Glo kit (Promega, cat: G7573) was applied for the cell viability evaluation using Envision.

The nature of data set [2]: Metabolic (liver microsomal) stability assay. The conditions noted are these: human liver microsomes, 1 μM test compound.

pIC50: −log10 of the molar value.

From US20260070927A1, “INDAZOLE MACROCYCLES FOR THE TREATMENT OF AUTOIMMUNE DISEASE” (Hoffmann-La Roche Inc., priority 2022, published 2026) come the findings set out here.

In the case of `Cn1nc2cccc3c2c1CCCN(CCC(C)(C)O)C(=O)[C@@H]1C[C@@H](CN1c1ncnc2c1cnn2-c1ccc(F)cc1F)Oc1cccc-3c1` [Example 40, (8S,11S)-10-[1-(2,4-difluorophenyl)pyrazolo[3,4-d]pyrimidin-4-yl]-13-(3-hydroxy-3-methyl-butyl)-18-methyl-7-oxa-10,13,18,19-tetrazapentacyclo[15.6.1.1^2,6.1^8,11.0^20,24]hexacosa-1(23),2(26),3,5,17(24),19,21-heptaen-12-one], the pIC50 is 8.07 in data set [1] and 6.15 in the data set with STING (IFN-β in hPBMC). Further, the “Clearance of human microsome” value in data set [2] worked out at 15.6 mL/min/kg.

In the case of `CN(C)CCN1CCCc2c3c(cccc3nn2C)-c2cccc(c2)O[C@H]2C[C@@H](C1=O)N(c1ncnc3c1cnn3-c1ccc(F)cc1F)C2` [Example 24, (8S,11S)-10-[1-(2,4-difluorophenyl)pyrazolo[3,4-d]pyrimidin-4-yl]-13-[2-(dimethylamino)ethyl]-18-methyl-7-oxa-10,13,18,19-tetrazapentacyclo[15.6.1.1^2,6.1^8,11.0^20,24]hexacosa-1(23),2(26),3,5,17(24),19,21-heptaen-12-one], the results for the pIC50 (in data set [1]; in the data set with STING (IFN-β in hPBMC)) were 8.09 and 6.15, respectively. For the same compound, the “Clearance of human microsome” value in data set [2] is reported as 14.9 mL/min/kg.

Regarding `Cn1nc2cccc3c2c1CCCN(CCO)C(=O)[C@@H]1C[C@@H](CN1c1ncnc2c1cnn2-c1ccc(F)cc1F)Oc1cccc-3c1` [Example 22, (8S,11S)-10-[1-(2,4-difluorophenyl)pyrazolo[3,4-d]pyrimidin-4-yl]-13-(2-hydroxyethyl)-18-methyl-7-oxa-10,13,18,19-tetrazapentacyclo[15.6.1.1^2,6.1^8,11.0^20,24]hexacosa-1(23),2(26),3,5,17(24),19,21-heptaen-12-one], the pIC50 in data set [1] is 9.70; with STING (IFN-β in hPBMC) it was 6.58. Further, the “Clearance of human microsome” value in data set [2] is listed as 15.5 mL/min/kg.

With `CN1CCCc2c3c(cccc3nn2C)-c2ccnc(n2)N[C@H]2C[C@@H](C1=O)N(c1ncnc3c1cnn3-c1ccc(F)cc1F)C2` [Example 4, (8S,11S)-10-[1-(2,4-difluorophenyl)pyrazolo[3,4-d]pyrimidin-4-yl]-13,18-dimethyl-5,7,10,13,18,19,26-heptazapentacyclo[15.6.1.1^2,6.1^8,11.0^20,24]hexacosa-1(23),2,4,6(26),17(24),19,21-heptaen-12-one], the pIC50 is 9.30 in data set [1] and 6.38 in the data set on STING (IFN-β in hPBMC). Besides, in data set [2], the “Clearance of human microsome” value was 15.0 mL/min/kg.

`Cn1nc2cccc3c2c1CCCN(CCCn1cnnn1)C(=O)[C@@H]1C[C@@H](CN1c1ncnc2c1cnn2-c1ccc(F)cc1F)Oc1cccc-3c1` [Example 36, (8S,11S)-10-[1-(2,4-difluorophenyl)pyrazolo[3,4-d]pyrimidin-4-yl]-18-methyl-13-[3-(tetrazol-1-yl)propyl]-7-oxa-10,13,18,19-tetrazapentacyclo[15.6.1.1^2,6.1^8,11.0^20,24]hexacosa-1(23),2(26),3,5,17(24),19,21-heptaen-12-one]: the pIC50 in data set [1] is 8.89; in the data set with STING (IFN-β in hPBMC), 5.80. Moreover, in data set [2], the “Clearance of human microsome” value is listed as 11.9 mL/min/kg.

As to `COc1cc(F)ccc1-n1ncc2c(N3C[C@@H]4C[C@H]3C(=O)N(CCCN3CCOCC3)CCCc3c5c(ccc(F)c5nn3C)-c3cccc(n3)N4)ncnc21` [Example 45, (8S,11S)-21-fluoro-10-[1-(4-fluoro-2-methoxy-phenyl)pyrazolo[3,4-d]pyrimidin-4-yl]-18-methyl-13-(3-morpholinopropyl)-7,10,13,18,19,26-hexazapentacyclo[15.6.1.1^2,6.1^8,11.0^20,24]hexacosa-1(23),2(26),3,5,17(24),19,21-heptaen-12-one], the pIC50 in data set [1] was 8.41; with STING (IFN-β in hPBMC), 6.24. In addition, the “Clearance of human microsome” value in data set [2] stood at 15.9 mL/min/kg.
